Test results from ChEMBL document CHEMBL1137808, “Biologically active proteins from natural product extracts” (J Nat Prod, 2001).
Converted amounts (≈) assume the structure as drawn. Bridge positions count the residues as written; N and C are the ends. Peptide text beside a SMILES is read from it.

test system: Human immunodeficiency virus 1; assay: Antiviral activity against HIV1; type: functional, organism-based; details: not given

Which EC50 does the source give for CC[C@H](C)[C@@H]1NC(=O)[C@H](CO)NC(=O)[C@H]([C@@H](C)O)NC(=O)[C@H](Cc2ccc(O)cc2)NC(=O)[C@@H]2CSSC[C@@H]3NC(=O)[C@H](C(C)C)NC(=O)[C@H](CCCCN)NC(=O)[C@H](CC(N)=O)NC(=O)[C@H](CCC(=O)O)NC(=O)[C@@H]4CSSC[C@H](NC(=O)[C@H](CO)NC(=O)[C@H](CCC(=O)O)NC(=O)CNC(=O)[C@H](CSSC[C@H](NC(=O)[C@H](CC(N)=O)NC(=O)[C@H](Cc5ccccc5)NC1=O)C(=O)N[C@@H](CCCCN)C(=O)N4)NC(=O)[C@@H]1CCCN1C(=O)[C@H]([C@@H](C)CC)NC(=O)[C@H](CCCCN)NC(=O)[C@H](CC(=O)O)NC(=O)[C@H](Cc1cnc[nH]1)NC(=O)[C@H](Cc1ccc(O)cc1)NC3=O)C(=O)N[C@@H](C(C)C)C(=O)N[C@@H](Cc1c[nH]c3ccccc13)C(=O)N[C@@H]([C@@H](C)CC)C(=O)N1CCC[C@H]1C(=O)N2 [CIRCULIN D] (cyclo(CENKVCYHDKIPCGESCVWIPCYTSIFNCK); disulfide 1-17, 6-22, 13-29) here?
Its EC50 is 40 nM.

For CC[C@H](C)[C@@H]1NC(=O)[C@@H]2CSSC[C@@H]3NC(=O)[C@H](C(C)C)NC(=O)[C@H](CCCCN)NC(=O)[C@H](CC(N)=O)NC(=O)[C@H](CCCCN)NC(=O)[C@@H]4CSSC[C@H](NC(=O)[C@H](CO)NC(=O)[C@H](CCC(=O)O)NC(=O)CNC(=O)[C@H](CSSC[C@H](NC(=O)CNC(=O)[C@H](CC(C)C)NC(=O)[C@H](C)NC(=O)[C@H](C)NC(=O)[C@H](CO)NC1=O)C(=O)N[C@@H](CO)C(=O)N4)NC(=O)[C@@H]1CCCN1C(=O)[C@H]([C@@H](C)CC)NC(=O)CNC(=O)[C@H](CC(N)=O)NC(=O)[C@H](CCCNC(=N)N)NC(=O)[C@H](Cc1ccc(O)cc1)NC3=O)C(=O)N[C@@H](C(C)C)C(=O)N[C@@H](Cc1c[nH]c3ccccc13)C(=O)N[C@@H]([C@@H](C)CC)C(=O)N1CCC[C@H]1C(=O)N2 [CIRCULIN A] (cyclo(AALGCSCKNKVCYRNGIPCGESCVWIPCIS); disulfide 5-19, 7-23, 12-28), which EC50 is on record?
Its EC50 is 40 nM.

Which EC50 does the source give for CC[C@H](C)[C@@H]1NC(=O)[C@@H]2CSSC[C@@H]3NC(=O)[C@H](C(C)C)NC(=O)[C@H](CCCCN)NC(=O)[C@H](CO)NC(=O)[C@H](CCCCN)NC(=O)[C@@H]4CSSC[C@H](NC(=O)[C@H](CO)NC(=O)[C@H](CCC(=O)O)NC(=O)CNC(=O)[C@H](CSSC[C@H](NC(=O)CNC(=O)[C@H](C)NC(=O)[C@H](C(C)C)NC(=O)[C@H](CO)NC(=O)[C@H]([C@@H](C)O)NC1=O)C(=O)N[C@@H](CO)C(=O)N4)NC(=O)[C@@H]1CCCN1C(=O)[C@H]([C@@H](C)CC)NC(=O)CNC(=O)[C@H](CC(N)=O)NC(=O)[C@H](CCCNC(=N)N)NC(=O)[C@H](Cc1ccc(O)cc1)NC3=O)C(=O)N[C@@H](C(C)C)C(=O)N[C@@H](Cc1ccccc1)C(=O)N[C@@H]([C@@H](C)CC)C(=O)N1CCC[C@H]1C(=O)N2 [CIRCULIN C] (cyclo(AGCSCKSKVCYRNGIPCGESCVFIPCITSV); disulfide 3-17, 5-21, 10-26) here?
Its EC50 is 40 nM.

For CC[C@H](C)[C@@H]1NC(=O)[C@@H]2CSSC[C@@H]3NC(=O)[C@H](C(C)C)NC(=O)[C@H](CCCCN)NC(=O)[C@H](CC(N)=O)NC(=O)[C@H](CCCCN)NC(=O)[C@@H]4CSSC[C@H](NC(=O)[C@H](CO)NC(=O)[C@H](CCC(=O)O)NC(=O)CNC(=O)[C@H](CSSC[C@H](NC(=O)CNC(=O)[C@H](CC(C)C)NC(=O)[C@H](CC(C)C)NC(=O)[C@H]([C@@H](C)O)NC(=O)[C@H](CO)NC1=O)C(=O)N[C@@H](CO)C(=O)N4)NC(=O)[C@@H]1CCCN1C(=O)[C@H]([C@@H](C)CC)NC(=O)[C@H](C(C)C)NC(=O)CNC(=O)[C@H](CC(N)=O)NC(=O)[C@H](CCCNC(=N)N)NC(=O)[C@H](Cc1ccc(O)cc1)NC3=O)C(=O)N[C@@H](C(C)C)C(=O)N[C@@H](Cc1ccccc1)C(=O)N[C@@H]([C@@H](C)CC)C(=O)N1CCC[C@H]1C(=O)N2 [CIRCULIN B] (cyclo(CGESCVFIPCISTLLGCSCKNKVCYRNGVIP); disulfide 1-17, 5-19, 10-24), which EC50 is on record?
Its EC50 is 40 nM.

For CC[C@H](C)[C@@H]1NC(=O)[C@H](C)NC(=O)[C@H](C)NC(=O)[C@H](CO)NC(=O)[C@H]([C@@H](C)CC)NC(=O)[C@@H]2CSSC[C@@H]3NC(=O)[C@H](C(C)C)NC(=O)[C@H](CCCCN)NC(=O)[C@H](CC(N)=O)NC(=O)[C@H](CCCCN)NC(=O)[C@@H]4CSSC[C@H](NC(=O)[C@H](CO)NC(=O)[C@H](CCC(=O)O)NC(=O)CNC(=O)[C@H](CSSC[C@H](NC(=O)CNC1=O)C(=O)N[C@@H](CO)C(=O)N4)NC(=O)[C@@H]1CCCN1C(=O)[C@H]([C@@H](C)CC)NC(=O)[C@H](C)NC(=O)[C@H](CCCNC(=N)N)NC(=O)[C@H](Cc1ccc(O)cc1)NC3=O)C(=O)N[C@@H](C(C)C)C(=O)N[C@@H](Cc1c[nH]c3ccccc13)C(=O)N[C@@H]([C@@H](C)CC)C(=O)N1CCC[C@H]1C(=O)N2 [CIRCULIN F] (cyclo(AAIGCSCKNKVCYRAIPCGESCVWIPCIS); disulfide 5-18, 7-22, 12-27), which EC50 is on record?
The EC50 was 40 nM.

CC[C@H](C)[C@@H]1NC(=O)[C@H](CCCCN)NC(=O)[C@H](CC(=O)O)NC(=O)[C@H](Cc2cnc[nH]2)NC(=O)[C@H](Cc2ccc(O)cc2)NC(=O)[C@@H]2CSSC[C@@H]3NC(=O)[C@@H]4CCCN4C(=O)[C@H]([C@@H](C)CC)NC(=O)[C@H](Cc4c[nH]c5ccccc45)NC(=O)[C@H](C(C)C)NC(=O)[C@@H]4CSSC[C@H](NC(=O)[C@H](CCCCN)NC(=O)[C@H](CSSC[C@H](NC(=O)[C@@H]5CCCN5C1=O)C(=O)NCC(=O)N[C@@H](CCC(=O)O)C(=O)N[C@@H](CO)C(=O)N4)NC(=O)[C@H](CC(N)=O)NC(=O)[C@H](Cc1ccccc1)NC(=O)[C@H](C(C)C)NC(=O)[C@H](CO)NC(=O)[C@H]([C@@H](C)O)NC(=O)[C@H](CC(C)C)NC3=O)C(=O)N[C@@H](CCC(=O)O)C(=O)N[C@@H](CC(N)=O)C(=O)N[C@@H](CCCCN)C(=O)N[C@@H](C(C)C)C(=O)N2 [CIRCULIN E] (cyclo(CENKVCYHDKIPCGESCVWIPCLTSVFNCK); disulfide 1-17, 6-22, 13-29) was tested. Which EC50 did it give?
Its EC50 is 40 nM.

test system: Human immunodeficiency virus; assay: Antiviral activity against HIV infected in human MOLT4 cells assessed as inhibition of virus-induced cytopathic effect; type: functional, organism-based; details: Human immunodeficiency virus 1, MOLT-4

Which EC50 does the source give for CC(C)[C@@H]1NC(=O)[C@H](CCCNC(=N)N)NC(=O)[C@H](Cc2ccccc2)NC(=O)[C@@H](NC(=O)[C@H](Cc2c[nH]c3ccccc23)NC(=O)[C@H](CCCNC(=N)N)NC(=O)[C@@H](N)CCCNC(=N)N)CSSC[C@@H]2NC(=O)[C@H](Cc3ccccc3)NC(=O)CNC(=O)[C@H](CCCCN)NC(=O)[C@H](Cc3ccc(O)cc3)NC(=O)[C@H](CSSC[C@@H](C(=O)N[C@@H](CCCNC(=N)N)C(N)=O)NC(=O)[C@H](CCCCN)NC(=O)[C@H](CCCNC(=N)N)NC(=O)[C@H](Cc3ccc(O)cc3)NC2=O)NC1=O [POLYPHEMUSIN II] (H-RRWCFRVCYKGFCYRKCR-NH2; disulfide 4-13, 8-17) here?
The EC50 was 8 ng/mL (≈ 3.3 nM).
